Key:
rice = test: Treatment of soil under submerged condition, pre-emergence (Test 4), injury; format: in vivo; conditions: 30 g ai/a granule, 30 days later
Summary of the method: (§1)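 Weeds were seeded or planted in submerged soil, with 2-3 leaf rice seedlings transplanted into the same pots. One day later, before weed emergence, a granule formulation of the test composition was applied. Weed damage and rice injury were scored 30 days after treatment.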

peanut = test: Upland soil application test (Test 2), crop injury; format: in vivo; conditions: 30 g ai/a, soil spray before emergence, 30 days later
Summary of the method: (§2)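 Pre-emergence test in upland soil pots with weed seeds mixed into the soil; one day after seeding, wettable-powder formulation diluted in water and sprayed onto the soil surface at 10 l per are. Damage scored 30 days later from air-dried weight relative to untreated pots.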

cotton = test: Upland soil application test (Test 2), crop injury; format: in vivo; conditions: 30 g ai/a, soil spray before emergence, 30 days later
Summary of the method: as §2

soybean = test: Upland soil application test (Test 2), crop injury; format: in vivo; conditions: 30 g ai/a, soil spray before emergence, 30 days later
Summary of the method: as §2

foxtail meadow = test: Upland soil application test (Test 2); format: in vivo; conditions: 30 g ai/a, soil spray before emergence, 30 days later
Summary of the method: (§3)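 Soil-surface application of water-diluted wettable powder at 10 l per are, made one day after seeding and ahead of weed emergence. Plants stayed in the greenhouse for 30 days; injury was rated by air-dried weight versus untreated pots.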

barnyardgrass [1] = test: Upland soil application test (Test 2); format: in vivo; conditions: 30 g ai/a, soil spray before emergence, 30 days later
Summary of the method: as §3

common lambsquarters = test: Upland soil application test (Test 2); format: in vivo; conditions: 30 g ai/a, soil spray before emergence, 30 days later
Summary of the method: as §3

green foxtail = test: Upland soil application test (Test 2); format: in vivo; conditions: 30 g ai/a, soil spray before emergence, 30 days later
Summary of the method: as §3

large crabgrass = test: Upland soil application test (Test 2); format: in vivo; conditions: 30 g ai/a, soil spray before emergence, 30 days later
Summary of the method: as §3

redroot pigweed = test: Upland soil application test (Test 2); format: in vivo; conditions: 30 g ai/a, soil spray before emergence, 30 days later
Summary of the method: as §3

johnsongrass = test: Upland soil application test (Test 2); format: in vivo; conditions: 30 g ai/a, soil spray before emergence, 30 days later
Summary of the method: as §3

[2] = tested on: ALS (acetolactate syntase); test: ALS enzyme assay (Test 1); format: biochemical, pea; conditions: 1,000 ppm (0.5 mg/0.5 ml)
Summary of the method: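 Partially purified ALS from dark-grown pea and barnyardgrass seedlings incubated 1 h at 30° C with pyruvate, TPP, MgCl2 and FAD. Compounds tested at 1,000 ppm (0.5 mg/0.5 ml). Acetoin formed detected colorimetrically at 525 nm via creatine/α-naphthol, relative to blank and acid-stopped controls.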

bulrush [3] = test: Treatment of soil under submerged condition, pre-emergence (Test 4); format: in vivo; conditions: 30 g ai/a granule, 30 days later
Summary of the method: as §1

Sagittaria pygmaea [4] = test: as above; format: in vivo; conditions: 30 g ai/a granule, 30 days later
Summary of the method: as §1

barnyardgrass [5] = test: as above; format: in vivo; conditions: 30 g ai/a granule, 30 days later
Summary of the method: as §1

bulrush [6] = test: Treatment of soil under submerged condition, post-emergence (Test 5); format: in vivo; conditions: 30 g ai/a granule, 30 days later
Summary of the method: (§4)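 Granule applied to submerged greenhouse pots at two-leaf barnyardgrass; transplanted 2–3-leaf rice present; weed damage and rice injury graded 30 days on.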

Sagittaria pygmaea [7] = test: as above; format: in vivo; conditions: 30 g ai/a granule, 30 days later
Summary of the method: as §4

barnyardgrass [8] = test: as above; format: in vivo; conditions: 30 g ai/a granule, post-emergence (barnyardgrass two-leaf stage), 30 days later
Summary of the method: as §4

Inhibitory activity (%) Pea [2] [%] | Compound | Injury Rice (rice) | Injury Peanut (peanut) | Injury Cotton (cotton) | Injury Soybean (soybean) | Herbicidal effects Foxtail meadow (foxtail meadow) | Herbicidal effects Barnyardgrass (barnyardgrass [1]) | Herbicidal effects Common lambsquarters (common lambsquarters) | Herbicidal effects Green foxtail (green foxtail) | Herbicidal effects Large crabgrass (large crabgrass) | Herbicidal effects Redroot pigweed (redroot pigweed) | Herbicidal effects Johnsongrass (johnsongrass) | Herbicidal effects Bulrush (bulrush [3]) | Herbicidal effects Sagittaria Pygmaea (Sagittaria pygmaea [4]) | Herbicidal effects Barnyardgrass (barnyardgrass [5]) | Herbicidal effects Bulrush (bulrush [6]) | Herbicidal effects Sagittaria Pygmaea (Sagittaria pygmaea [7]) | Herbicidal effects Barnyardgrass (barnyardgrass [8])
0 | COc1cc(OC)nc(Oc2ccccc2C=NOCC=Cc2ccccc2Br)n1 [compound 40] | 0 (91-100 (No damages)) | 0 (91-100 (No damages)) | 0 (91-100 (No damages)) | 0 (91-100 (No damages)) | 5 (0-5 (Death)) | 5 (0-5 (Death)) | 4 (6-10 (Severe damages)) | 4 (6-10 (Severe damages)) | 4 (6-10 (Severe damages)) | 5 (0-5 (Death)) | 4 (6-10 (Severe damages)) | 3 (11-40 (Medium damages)) | 5 (0-5 (Death)) | 5 (0-5 (Death)) | 4 (6-10 (Severe damages)) | 4 (6-10 (Severe damages)) | 5 (0-5 (Death))
10 | COc1cc(OC)nc(Oc2ccccc2C=NOCC=Cc2ccc(C(F)(F)F)cc2)n1 [compound 35] | 0 (91-100 (No damages)) | 0 (91-100 (No damages)) | 0 (91-100 (No damages)) | 0 (91-100 (No damages)) | 5 (0-5 (Death)) | 5 (0-5 (Death)) | 5 (0-5 (Death)) | 5 (0-5 (Death)) | 5 (0-5 (Death)) | 4 (6-10 (Severe damages)) | 5 (0-5 (Death)) | 3 (11-40 (Medium damages)) | 5 (0-5 (Death)) | 4 (6-10 (Severe damages)) | 4 (6-10 (Severe damages)) | 3 (11-40 (Medium damages)) | 5 (0-5 (Death))
0 | COc1cc(OC)nc(Oc2ccccc2C=NOCc2ccc(C)cc2)n1 [compound 19] | 0 (91-100 (No damages)) | 0 (91-100 (No damages)) | 0 (91-100 (No damages)) | 0 (91-100 (No damages)) | 4 (6-10 (Severe damages)) | 4 (6-10 (Severe damages)) | 4 (6-10 (Severe damages)) | 4 (6-10 (Severe damages)) | 3 (11-40 (Medium damages)) | 3 (11-40 (Medium damages)) | 3 (11-40 (Medium damages)) | 4 (6-10 (Severe damages)) | 4 (6-10 (Severe damages)) | 4 (6-10 (Severe damages)) | 4 (6-10 (Severe damages)) | 3 (11-40 (Medium damages)) | 4 (6-10 (Severe damages))
0 | COc1cc(OC)nc(Oc2ccccc2C=NOCC=Cc2ccccc2C(F)(F)F)n1 [compound 32] | 0 (91-100 (No damages)) | 0 (91-100 (No damages)) | 0 (91-100 (No damages)) | 0 (91-100 (No damages)) | 5 (0-5 (Death)) | 5 (0-5 (Death)) | 4 (6-10 (Severe damages)) | 5 (0-5 (Death)) | 5 (0-5 (Death)) | 5 (0-5 (Death)) | 5 (0-5 (Death)) | 4 (6-10 (Severe damages)) | 5 (0-5 (Death)) | 5 (0-5 (Death)) | 4 (6-10 (Severe damages)) | 4 (6-10 (Severe damages)) | 5 (0-5 (Death))

The next lines start with the molecule.

Compound | Inhibitory activity (%) Pea [2] [%] | Injury Rice (rice) | Injury Peanut (peanut) | Injury Cotton (cotton) | Injury Soybean (soybean) | Herbicidal effects Foxtail meadow (foxtail meadow) | Herbicidal effects Barnyardgrass (barnyardgrass [1]) | Herbicidal effects Common lambsquarters (common lambsquarters) | Herbicidal effects Green foxtail (green foxtail) | Herbicidal effects Large crabgrass (large crabgrass) | Herbicidal effects Redroot pigweed (redroot pigweed) | Herbicidal effects Johnsongrass (johnsongrass) | Herbicidal effects Bulrush (bulrush [3]) | Herbicidal effects Sagittaria Pygmaea (Sagittaria pygmaea [4]) | Herbicidal effects Barnyardgrass (barnyardgrass [5]) | Herbicidal effects Bulrush (bulrush [6]) | Herbicidal effects Sagittaria Pygmaea (Sagittaria pygmaea [7]) | Herbicidal effects Barnyardgrass (barnyardgrass [8])
CC=CCON=Cc1ccccc1Oc1nc(OC)cc(OC)n1 [compound 8] | 0 | 1 (71-90 (Slight damages)) | 0 (91-100 (No damages)) | 0 (91-100 (No damages)) | 0 (91-100 (No damages)) | 5 (0-5 (Death)) | 4 (6-10 (Severe damages)) | 4 (6-10 (Severe damages)) | 5 (0-5 (Death)) | 4 (6-10 (Severe damages)) | 5 (0-5 (Death)) | 5 (0-5 (Death)) | 4 (6-10 (Severe damages)) | 4 (6-10 (Severe damages)) | 4 (6-10 (Severe damages)) | 5 (0-5 (Death)) | 5 (0-5 (Death)) | 5 (0-5 (Death))
C=C(C)CON=Cc1ccccc1Oc1nc(OC)cc(OC)n1 [compound 5] | 0 | 0 (91-100 (No damages)) | 0 (91-100 (No damages)) | 0 (91-100 (No damages)) | 0 (91-100 (No damages)) | 5 (0-5 (Death)) | 5 (0-5 (Death)) | 4 (6-10 (Severe damages)) | 5 (0-5 (Death)) | 5 (0-5 (Death)) | 4 (6-10 (Severe damages)) | 5 (0-5 (Death)) | 4 (6-10 (Severe damages)) | 5 (0-5 (Death)) | 4 (6-10 (Severe damages)) | 5 (0-5 (Death)) | 5 (0-5 (Death)) | 5 (0-5 (Death))
COc1cc(OC)nc(Oc2ccccc2C=NOCc2ccccc2)n1 [Compound No. 15] | 0 | 1 (71-90 (Slight damages)) | 0 (91-100 (No damages)) | 0 (91-100 (No damages)) | 0 (91-100 (No damages)) | 5 (0-5 (Death)) | 5 (0-5 (Death)) | 4 (6-10 (Severe damages)) | 5 (0-5 (Death)) | 4 (6-10 (Severe damages)) | 4 (6-10 (Severe damages)) | 5 (0-5 (Death)) | 1 (71-90 (Slight damages)) | 3 (11-40 (Medium damages)) | 4 (6-10 (Severe damages)) | 4 (6-10 (Severe damages)) | 3 (11-40 (Medium damages)) | 5 (0-5 (Death))
COc1cc(OC)nc(Oc2ccccc2C=NOCC=C(C)Cl)n1 [compound 12] | 0 | 1 (71-90 (Slight damages)) | 0 (91-100 (No damages)) | 0 (91-100 (No damages)) | 0 (91-100 (No damages)) | 4 (6-10 (Severe damages)) | 4 (6-10 (Severe damages)) | 3 (11-40 (Medium damages)) | 4 (6-10 (Severe damages)) | 4 (6-10 (Severe damages)) | 3 (11-40 (Medium damages)) | 4 (6-10 (Severe damages)) | 4 (6-10 (Severe damages)) | 4 (6-10 (Severe damages)) | 4 (6-10 (Severe damages)) | 5 (0-5 (Death)) | 3 (11-40 (Medium damages)) | 5 (0-5 (Death))
